Source: patent US20170216252A1, “ANTI-BACTERIAL PYRUVATE KINASE MODULATOR COMPOUNDS, COMPOSITIONS, USES AND METHODS” (SIMON FRASER UNIVERSITY, priority 2014, published 2017)
pIC50: −log10 of the molar value. In brackets after ≈: the same amount, converted by molar mass. Where two headings read alike, the source gives them in different places.

Assays:
S. aureus ATCC 29213 = test: In vitro susceptibility, broth microdilution MIC; assay type: cell-based, Staphylococcus aureus
Summary of the method: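 The MIC against S. aureus 29213 was determined by CLSI 2-fold serial broth microdilution in Mueller Hinton broth. Plates were incubated for 18–24 h at 37 °C and read at OD600 with background subtracted. The MIC was the lowest concentration giving complete growth inhibition versus compound-free wells.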

MRSA PK = molecular target: T1, MRSA PK (Staphylococcus aureus, UniProt Q6GG09); test: MRSA PK activity, continuous LDH-coupled assay; assay type: biochemical, S. aureus (MRSA strain Sanger 252); settings: for fold more potent: compared to 10a
T1 construct: His tag (pET-28a(+) vector) (N); made in house; host or cells: E. coli BL-21 (DE3)
T1 sequence (Q6GG09 whole entry): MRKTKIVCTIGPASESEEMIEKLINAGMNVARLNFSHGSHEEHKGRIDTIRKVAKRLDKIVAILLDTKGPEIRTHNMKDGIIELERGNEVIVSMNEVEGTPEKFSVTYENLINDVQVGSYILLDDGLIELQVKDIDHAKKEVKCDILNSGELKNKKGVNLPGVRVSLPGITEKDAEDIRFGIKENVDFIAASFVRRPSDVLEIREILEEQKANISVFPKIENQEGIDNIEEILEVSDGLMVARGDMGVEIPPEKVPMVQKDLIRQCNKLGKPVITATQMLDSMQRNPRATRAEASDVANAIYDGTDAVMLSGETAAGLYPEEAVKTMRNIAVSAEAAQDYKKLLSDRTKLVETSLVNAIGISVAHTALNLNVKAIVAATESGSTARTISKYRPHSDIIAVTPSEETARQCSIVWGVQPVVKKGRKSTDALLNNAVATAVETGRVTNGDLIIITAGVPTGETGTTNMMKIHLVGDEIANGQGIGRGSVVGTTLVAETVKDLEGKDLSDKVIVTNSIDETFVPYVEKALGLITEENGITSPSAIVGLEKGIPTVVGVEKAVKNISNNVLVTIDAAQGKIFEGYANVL
Summary of the method: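 Activity was tracked as the 340 nm absorbance fall from NADH oxidation via coupled LDH, at 30 °C for ≤5 min. Reactions began on adding 15 nM recombinant His-tagged S. aureus PK, with inhibitor DMSO kept ≤1%. Four-parameter dose–response fitting gave IC50.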

MRSA MW2 (USA400) = test: Broth microdilution MIC; assay type: cell-based; settings: Staphylococcus aureus, read-out: MIC (μg/mL) G
Method: (§1) The antimicrobial activities of PK inhibitor candidates were determined using the 96-well microtiter standard 2-fold serial broth microdilution method as described by CLSI (formerly NCCLS) with the various gram-positive and gram-negative bacteria species mentioned above. Bacteria from a single colony were grown, overnight in either BHI Broth (VRE), mueller hinton broth (S. aureus 29213; MRSA USA400) or L-broth (E. coli, P. aeruginosa, S. typhimuriu, K. Pneumonia and A. baumannii). […] Culture plates were incubated for 18-24 h at 37° C., and optical density at 600 nm (OD600) was measured using a Benchmark Plus™ microplate spectrophotometer (Bio-Rad™). The absorbance control values for the series containing CAMHB and inhibitor were subtracted as background from the corresponding infected wells. The MIC was defined as the lowest concentration of test compound leading to complete inhibition of cell growth in relationship to compound-free control wells as determined by optical density. […] All assays were run in triplicate (Tables 1-6) or duplicate. Experiments were replicated at least twice to verify reproducibility using the above conditions.
(§2) The antimicrobial activity of selected compounds against the gram negative bacteria Klebsiella pneumoniae, Acinetobacter baumannii, E. coli, Pseudomonas aeruginosa and Salmonella typhimurium, as well as additional gram positive bacteria, including drug-resistant strains, was tested according to the procedures provided under “General Methodologies” above.

VRE#2 (2010A) = test: Broth microdilution MIC; assay type: cell-based, vancomycin-resistant Enterococcus; settings: Enterococcus, read-out: MIC (μg/mL) F
Method: as §1, §2

[1] = test system: A. baumannii (ATCC 19606); test: Broth microdilution MIC; assay type: cell-based; settings: Acinetobacter baumannii, ATCC19606, read-out: MIC (μg/mL) B
Method: as §1, §2

K. pneumoniae (C238) = test: Broth microdilution MIC; assay type: cell-based; settings: Klebsiella pneumoniae, read-out: MIC (μg/mL) A
Method: as §1, §2

S. aureus ATCC 29123 = test: Neutropenic mouse Staphylococcus aureus thigh infection model; assay type: in vivo; settings: vancomycin control, 10 mg/kg IP at 2 and 8 h, 24 h endpoint
Method: The antimicrobial activity of compound 178 against S. aureus ATCC 29123 was tested in vivo using the neutropenic mouse Staphylococcus aureus thigh infection model. […] Animals were individually monitored for adverse reactions for 30 min post-infection. […] Vancomycin was administered as a solution in PBS. The test compounds were administered as outlined in Table 12 at 2 and 8 hours post-infection and animals were individually monitored for adverse reactions for 30 min after each injection. All animals were then monitored hourly from 20 hours post infection to the endpoint (t=24 hr post infection). At the indicated timepoint, animals were sacrificed and the injected thigh collected. Quantitative enumeration of bacterial load was determined by plating serial dilutions from homogenized thigh muscles. Homogenized muscle was in a total of 2 mL volume, from which a 1 in 10 dilution was prepared (100 μL into 900 μL saline). From this a series of dilutions were prepared and plated on Mueller Hinton agar plates. […] At the end of this time colony counts were determined and the final CFU per mL calculated.

[2] = Staphylococcus aureus, ATCC29213, Tables 1-6 and text, minimum concentration to give >98% inhibition of growth, read-out: MIC
[3] = Tables 1-6, 2 mM ADP, 10 mM PEP, 15 nM PK, read-out: IC50
[4] = read-out: % inhibition at the highest concentration tested (IC50)
[5] = Staphylococcus aureus, ATCC29213, Table 8, tested at least in duplicate, differing values all given, read-out: MIC
[6] = Table 8, tested at least in duplicate, differing values all given

SMILES | MIC (S. aureus ATCC 29213; [2]) [µg/mL] | pIC50 (MRSA PK; [3]) | melting point | further results
Brc1ccc2cc(-c3cc4ccccc4[nH]3)[nH]c2c1 [Compound 10a, 6-Bromo-1H,1′H-2,2′-biindole] | 2 (≈ 6.43 µM) | 7.67 | 199 to 201 °C | fold more potent in the MIC assay (S. aureus ATCC 29213; compared to 10b): about 8 fold
Clc1ccc2[nH]c(-c3cc4ccc(Br)cc4[nH]3)cc2c1 [Compound 10d, 6′-Bromo-5-chloro-1H,1′H-2,2′-biindole] | 0.3 (≈ 0.868 µM) | 8.70 | 257 to 259 °C | –
Fc1ccc2[nH]c(-c3cc4ccc(Br)cc4[nH]3)cc2c1 [Compound 10e, 6′-Bromo-5-fluoro-1H,1′H-2,2′-biindole] | 0.3 (≈ 0.911 µM) | 8.55 | 246 to 248 °C | –
COc1ccc2[nH]c(-c3cc4ccc(Br)cc4[nH]3)cc2c1 [Compound 10f, 6′-Bromo-5-methoxy-1H,1′H-2,2′-biindole] | > 64 | 8.60 | 240 to 241 °C | –
Brc1ccc2cc(-c3cc4cc(-c5ccccc5)ccc4[nH]3)[nH]c2c1 [Compound 10g, 6′-Bromo-5-phenyl-1H,1′H-2,2′-biindole] | > 64 | 8.66 | 237 to 239 °C | –
Brc1cc2cc(-c3cc4ccccc4[nH]3)[nH]c2cc1Br [Compound 10j, 5,6-Dibromo-1H,1′H-2,2′-biindole] | – | – | 233 °C (dec.) | inhibition at 10 µM (MRSA PK; [4]): 39%
Cn1c(-c2cc3cc(Br)ccc3[nH]2)cc2ccc(Br)cc21 [Compound 12b, 5′,6-Dibromo-1-methyl-1H,2′H-2,2′-biindole] | – | – | 192 to 194 °C | inhibition at 10 µM (MRSA PK; [4]): 25%
COCn1c(-c2cc3ccc(Br)cc3[nH]2)cc2cc(Br)ccc21 [Compound 12c, 5,6′-Dibromo-1-(methoxymethyl)-1H,1′H-2,2′-biindole] | > 64 | 8.72 | 199 to 201 °C | –
O=C(O)Cn1c(-c2cc3ccc(Br)cc3[nH]2)cc2cc(Br)ccc21 [Compound 14, 2-(5,6′-Dibromo-1H,1′H-[2,2′-biindol]-1-yl)acetic acid] | > 64 | 7.95 | 321 to 323 °C | –
O=C(Cn1c(-c2cc3ccc(Br)cc3[nH]2)cc2cc(Br)ccc21)N1CCOCC1 [Compound 15, 2-(5,6′-dibromo-1H,1′H-[2,2′-biindol]-1-yl)-1-morpholinoethanone] | > 64 | 8.22 | 320 to 322 °C | –
Brc1ccc2cc(-c3cc4ccccc4s3)[nH]c2c1 [Compound 22c, 2-(Benzo[b]thiophen-2-yl)-6-bromo-1H-indole] | > 64 | 7.85 | 250 to 252 °C | –
Brc1ccc2[nH]c(-c3nc4ccccc4s3)cc2c1 [Compound 22d, 2-(5-Bromo-1H-indol-2-yl)benzo[d]thiazole] | > 64 | 6.45 | 208 to 210 °C | –
Brc1ccc2[nH]c(-c3cc4ccccc4o3)cc2c1 [Compound 22e, 2-(Benzofuran-2-yl)-5-bromo-1H-indole] | – | – | 236 to 238 °C | inhibition at 10 µM (MRSA PK; [4]): 45%
Brc1ccc2[nH]c(-c3cc4ccccc4s3)cc2c1 [Compound 22f, 2-(Benzo[b]thiophen-2-yl)-5-bromo-1H-indole] | > 64 | – | 269 to 271 °C | inhibition at 1 µM (MRSA PK; [4]): 42%
Brc1ccc2[nH]c(-c3nc4ccc(Br)cc4s3)cc2c1 [Compound 22g, 6-Bromo-2-(5-bromo-1H-indol-2-yl)benzo[d]thaizole] | > 64 | 8.39 | 246 to 248 °C | fold more potent (MRSA PK): about 5 fold
Brc1ccc2cc(C#Cc3cc4ccccc4[nH]3)[nH]c2c1 [Compound 25a, 2-((1H-indol-2-yl)ethynyl)-6-bromo-1H-indole] | > 64 | 8.15 | 240 to 242 °C | fold more potent (MRSA PK): 3 fold
Brc1ccc2[nH]c(CCc3cc4ccc(Br)cc4[nH]3)cc2c1 [Compound 28b, 6-bromo-2-(2-(5-bromo-1H-indol-2-yl)ethyl)-1H-indole] | > 64 | 8.20 | 208 to 210 °C | –
Brc1ccc2cc(-c3ccc(-c4cc5ccccc5[nH]4)cc3)[nH]c2c1 [Compound 33c, 2-(4-(1H-indol-2-yl)phenyl)-6-bromo-1H-indole] | > 64 | 8.25 | > 300 °C | –
Brc1ccc2cc(-c3cccc(-c4cc5ccccc5[nH]4)c3)[nH]c2c1 [Compound 33f, 2-(3-(1H-indol-2-yl)phenyl)-6-bromo-1H-indole] | – | – | 224 to 226 °C | inhibition at 10 µM (MRSA PK; [4]): 36%
Brc1ccc2c(c1)cc(-c1cc3ccc(Br)cc3[nH]1)n2CCN1CCCCC1 [Compound 72, 5,6′-dibromo-1-(2-(piperidin-1-yl)ethyl)-1H,1′H-2,2′-biindole] | > 64 | – | 102 to 104 °C | pIC50 (MRSA PK): 8.43
O=C(c1c(/C=C/c2ccc(Cl)cc2)[nH]c2cc(Br)ccc12)C(F)(F)F [Compound 168, (E)-1-(6-Bromo-2-(4-chlorostyryl)-1H-indol-3-yl)-2,2,2-trifluoroethanone] | – | – | – | MIC (S. aureus ATCC 29213; Staphylococcus aureus, ATCC29213, S. aureus (ATCC29213), Table 9, read-out: MIC (μg/mL) H): 2 µg/mL (≈ 4.67 µM); MIC (S. aureus ATCC 29213; [5]): 1 µg/mL (≈ 2.33 µM); MIC (S. aureus ATCC 29213; [6]): 2 µg/mL (≈ 4.67 µM); pIC50 (MRSA PK): 6.00 to 7.00; MIC (MRSA MW2 (USA400); MRSA MW2 (USA400)): 0.5 µg/mL (≈ 1.17 µM); MIC (VRE#2 (2010A); VRE#2 (2010A)): 1 µg/mL (≈ 2.33 µM)
O=C(c1c(/C=C/c2ccc(Cl)cc2)[nH]c2cc(Br)c(F)cc12)C(F)(F)F [Compound 175, (E)-1-(6-Bromo-2-(4-chlorostyryl)-5-fluoro-1H-indol-3-yl)-2,2,2-trifluoroethanone] | – | – | – | MIC (S. aureus ATCC 29213; [5]): 2 µg/mL (≈ 4.48 µM); pIC50 (MRSA PK): 6.00 to 7.00
O=C(c1c(-c2cc3ccccc3[nH]2)[nH]c2cc(Br)ccc12)C(F)(F)F [Compound 177, 1-(6-bromo-1H,1′H-[2,2′-biindol]-3-yl)-2,2,2-trifluoroethan-1-one] | – | – | – | MIC (S. aureus ATCC 29213; [5]): 2 µg/mL (≈ 4.91 µM); MIC (S. aureus ATCC 29213; [6]): 1 µg/mL (≈ 2.46 µM); pIC50 (MRSA PK): < 6.00
COc1ccc2[nH]c(-c3[nH]c4cc(Br)ccc4c3C(=O)C(F)(F)F)cc2c1 [Compound 179, 1-(6-bromo-5′-methoxy-1H,1′H-[2,2′-biindol]-3-yl)-2,2,2-trifluoroethan-1-one] | – | – | – | MIC (S. aureus ATCC 29213; [5]): 64 µg/mL (≈ 146 µM); pIC50 (MRSA PK): > 7.30
CN[C@H](CC(C)C)C(=O)N[C@H]1C(=O)N[C@@H](CC(N)=O)C(=O)N[C@H]2C(=O)N[C@H]3C(=O)N[C@H](C(=O)N[C@H](C(=O)O)c4cc(O)cc(O)c4-c4cc3ccc4O)[C@H](O)c3ccc(c(Cl)c3)Oc3cc2cc(c3O[C@@H]2O[C@H](CO)[C@@H](O)[C@H](O)[C@H]2O[C@H]2C[C@](C)(N)[C@H](O)[C@H](C)O2)Oc2ccc(cc2Cl)[C@H]1O [Vancomycin, reference compound] | – | – | – | MIC (S. aureus ATCC 29213; Staphylococcus aureus, ATCC29213): 1 µg/mL (≈ 0.69 µM); MIC (S. aureus ATCC 29213; Staphylococcus aureus, ATCC29213, read-out: MIC (μg/mL) H): 1 µg/mL (≈ 0.69 µM); MIC (MRSA MW2 (USA400)): 1 µg/mL (≈ 0.69 µM); MIC [1]: 64 µg/mL (≈ 44.2 µM); MIC (K. pneumoniae (C238)): 4 µg/mL (≈ 2.76 µM); MIC (VRE#2 (2010A); VRE): 64 µg/mL (≈ 44.2 µM); median CFU/thigh (S. aureus ATCC 29123): 1.91×10^3 CFU/thigh
